# System: Klebsiella isolates
# Assay: Antibiotic susceptibility of Klebsiella clinical isolates per 7-SNP clonotype (Lookup Table 1; disk diffusion)
# Type: cell-based, Klebsiella spp.
# Procedure: In further embodiments, the Lookup Table is Lookup Table 1. The information contained in Lookup Table 1 below was obtained from urine specimens from patients with Klebsiella infections from several clinics within different regions of the United States. CT=clonotypes determined using a 7-SNP combination: phoE54; rpoB130; infB279; mdh315; phoE336; phoE354; and mdh429.
# Next, antibiotic resistance was determined for all 387 Klebsiella isolates in the discovery set. Antibiotic testing was carried out according to the standard disk diffusion method as described in the Clinical and Laboratory Standards Institute (M100 Performance Standards for Antimicrobial Susceptibility Testing, 27th Edition, 2017). […] Since almost all Klebsiella isolates are known to be resistant to AMP and sensitive to IMI, TET is not used for treatment of urinary tract infections, and ESBL production is partially reflected in resistance to CTR, these antibiotics were not included for further analysis.
# To aid in clinical decision-making and to translate clonotype information to treatment selection, Lookup Table 1 was generated. […] The information contained in Lookup Table 1 was obtained from urine specimens from patients with Klebsiella infections from several clinics within different regions of the United States. Indications of allowance or non-recommendation were determined based on a 20% resistance threshold to the indicated antibiotic; i.e., the antibiotic is recommended when more than 80% of the tested isolates within the indicated clonotype were susceptible to the indicated antibiotic, and was cautioned against when less than 80% of the isolates were susceptible to the antibiotic.
smiles,measurement,setting,value
"O=C1CN(/N=C/c2ccc([N+](=O)[O-])o2)C(=O)N1 [NIT, nitrofurantoin]","susceptibility, %",CT 000,91%
same,"susceptibility, %",CT 001,0%
same,"susceptibility, %",CT 010,33%
same,"susceptibility, %",CT 011,82%
same,"susceptibility, %",CT 031,100%
same,"susceptibility, %",CT 040,50%
same,"susceptibility, %",CT 050,33%
same,"susceptibility, %",CT 051,56%
same,"susceptibility, %",CT 071,60%
same,"susceptibility, %",CT 100,86%
same,"susceptibility, %",CT 110,0%
same,"susceptibility, %",CT 111,30%
same,"susceptibility, %",CT 130,70%
same,"susceptibility, %",CT 131,56%
same,"susceptibility, %",CT 141,0%
same,"susceptibility, %",CT 150,42%
same,"susceptibility, %",CT 151,41%
same,"susceptibility, %",CT 160,0%
same,"susceptibility, %",CT 170,39%
same,"susceptibility, %",CT 171,28%
same,"susceptibility, %",CT 200,97%
same,"susceptibility, %",CT 201,66%
same,"susceptibility, %",CT 210,57%
same,"susceptibility, %",CT 211,81%
same,"susceptibility, %",CT 230,0%
same,"susceptibility, %",CT 231,50%
same,"susceptibility, %",CT 240,100%
same,"susceptibility, %",CT 241,0%
same,"susceptibility, %",CT 250,50%
same,"susceptibility, %",CT 251,57%
same,"susceptibility, %",CT 271,50%
same,"susceptibility, %",CT 300,0%
same,"susceptibility, %",CT 301,64%
same,"susceptibility, %",CT 310,47%
same,"susceptibility, %",CT 311,60%
same,"susceptibility, %",CT 330,15%
same,"susceptibility, %",CT 331,53%
same,"susceptibility, %",CT 350,54%
same,"susceptibility, %",CT 351,59%
same,"susceptibility, %",CT 370,25%
same,"susceptibility, %",CT 371,25%
same,"susceptibility, %",CT 411,50%
same,"susceptibility, %",CT 450,50%
same,"susceptibility, %",CT 451,67%
same,"susceptibility, %",CT 510,0%
same,"susceptibility, %",CT 511,100%
same,"susceptibility, %",CT 530,31%
same,"susceptibility, %",CT 531,33%
same,"susceptibility, %",CT 550,19%
same,"susceptibility, %",CT 551,18%
same,"susceptibility, %",CT 570,25%
same,"susceptibility, %",CT 571,50%
same,"susceptibility, %",CT 611,50%
same,"susceptibility, %",CT 630,0%
same,"susceptibility, %",CT 650,63%
same,"susceptibility, %",CT 651,35%
same,"susceptibility, %",CT 670,0%
same,"susceptibility, %",CT 710,67%
same,"susceptibility, %",CT 730,36%
same,"susceptibility, %",CT 731,67%
same,"susceptibility, %",CT 750,50%
same,"susceptibility, %",CT 751,33%
same,"susceptibility, %",CT 771,57%
same,"susceptibility, %",CT Any Klebsiella spp.,59%
"C[C@@H]1O[C@@H]1P(=O)(O)O [FOS, fosfomycin]","susceptibility, %",CT 000,63%
same,"susceptibility, %",CT 001,0%
same,"susceptibility, %",CT 010,33%
same,"susceptibility, %",CT 011,9%
same,"susceptibility, %",CT 031,33%
same,"susceptibility, %",CT 040,25%
same,"susceptibility, %",CT 050,29%
same,"susceptibility, %",CT 051,41%
same,"susceptibility, %",CT 071,80%
same,"susceptibility, %",CT 100,71%
same,"susceptibility, %",CT 110,0%
same,"susceptibility, %",CT 111,30%
same,"susceptibility, %",CT 130,29%
same,"susceptibility, %",CT 131,36%
same,"susceptibility, %",CT 141,0%
same,"susceptibility, %",CT 150,42%
same,"susceptibility, %",CT 151,43%
same,"susceptibility, %",CT 160,0%
same,"susceptibility, %",CT 170,39%
same,"susceptibility, %",CT 171,22%
same,"susceptibility, %",CT 200,43%
same,"susceptibility, %",CT 201,26%
same,"susceptibility, %",CT 210,45%
same,"susceptibility, %",CT 211,43%
same,"susceptibility, %",CT 230,100%
same,"susceptibility, %",CT 231,100%
same,"susceptibility, %",CT 240,100%
same,"susceptibility, %",CT 241,0%
same,"susceptibility, %",CT 250,55%
same,"susceptibility, %",CT 251,40%
same,"susceptibility, %",CT 271,38%
same,"susceptibility, %",CT 300,0%
same,"susceptibility, %",CT 301,24%
same,"susceptibility, %",CT 310,33%
same,"susceptibility, %",CT 311,35%
same,"susceptibility, %",CT 330,40%
same,"susceptibility, %",CT 331,32%
same,"susceptibility, %",CT 350,44%
same,"susceptibility, %",CT 351,35%
same,"susceptibility, %",CT 370,25%
same,"susceptibility, %",CT 371,50%
same,"susceptibility, %",CT 411,50%
same,"susceptibility, %",CT 450,33%
same,"susceptibility, %",CT 451,33%
same,"susceptibility, %",CT 510,50%
same,"susceptibility, %",CT 511,100%
same,"susceptibility, %",CT 530,14%
same,"susceptibility, %",CT 531,33%
same,"susceptibility, %",CT 550,33%
same,"susceptibility, %",CT 551,36%
same,"susceptibility, %",CT 570,50%
same,"susceptibility, %",CT 571,25%
same,"susceptibility, %",CT 611,33%
same,"susceptibility, %",CT 630,0%
same,"susceptibility, %",CT 650,37%
same,"susceptibility, %",CT 651,24%
same,"susceptibility, %",CT 670,0%
same,"susceptibility, %",CT 710,33%
same,"susceptibility, %",CT 730,21%
same,"susceptibility, %",CT 731,43%
same,"susceptibility, %",CT 750,60%
same,"susceptibility, %",CT 751,17%
same,"susceptibility, %",CT 771,36%
same,"susceptibility, %",CT Any Klebsiella spp.,41%

# From patent US20210214758A1, “METHODS AND TOOLS FOR DETERMINING CLONAL RELATEDNESS AND PREDICTING CLONAL TRAITS” (priority 2018, published 2021)
